Results on two compounds are retold here after patent publication US6177447A (Universiteit van Amsterdam, priority 1996, dated 2001).

The target in assay [1] is T1, glucocerebrosidase (Ceredase) (Homo sapiens, UniProt P04062).
T1 construct: purchased Genzyme Corp. Boston,USA; host or cells: human placenta
T1 sequence (P04062 40-536): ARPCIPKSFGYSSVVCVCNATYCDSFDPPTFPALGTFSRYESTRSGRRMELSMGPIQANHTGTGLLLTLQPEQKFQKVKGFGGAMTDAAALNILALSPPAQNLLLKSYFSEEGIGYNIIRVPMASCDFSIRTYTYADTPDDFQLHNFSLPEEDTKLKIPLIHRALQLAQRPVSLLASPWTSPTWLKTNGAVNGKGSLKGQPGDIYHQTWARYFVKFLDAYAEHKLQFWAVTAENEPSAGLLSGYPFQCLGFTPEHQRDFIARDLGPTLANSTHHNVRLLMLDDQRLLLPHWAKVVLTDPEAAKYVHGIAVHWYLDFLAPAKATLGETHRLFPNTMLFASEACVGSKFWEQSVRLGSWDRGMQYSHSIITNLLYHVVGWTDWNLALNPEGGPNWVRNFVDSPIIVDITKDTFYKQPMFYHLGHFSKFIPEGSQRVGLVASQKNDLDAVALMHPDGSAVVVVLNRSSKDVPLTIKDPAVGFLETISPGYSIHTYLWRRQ
The assay can be described thus: activity of soluble human placental glucocerebrosidase (Ceredase) towards 4MU-b-glucoside. The format is biochemical.

Assay [2] addresses T2, glucocerebrosidase (Homo sapiens, UniProt P04062).
T2 sequence (P04062 40-536): T1 sequence (P04062 40-536)
Briefly: conduritol B-epoxide inhibitable glucocerebrosidase activity in membrane fraction from human spleen. The format is biochemical.

In assay [3] the target is T3, lysosomal a-glucosidase (Homo sapiens, UniProt P10253). The assay can be described thus: purified lysosomal a-glucosidase activity towards 4MU-a-glucoside. The assay is classed as biochemical. To be noted: 4MU-a-glucoside, pH 4.0; read-out: apparent Ki A-GLUCOSIDASE
For assay [4], the target named is T4, glucosylceramide synthase (Homo sapiens, UniProt Q16739).
T4 sequence (Q16739 1-394): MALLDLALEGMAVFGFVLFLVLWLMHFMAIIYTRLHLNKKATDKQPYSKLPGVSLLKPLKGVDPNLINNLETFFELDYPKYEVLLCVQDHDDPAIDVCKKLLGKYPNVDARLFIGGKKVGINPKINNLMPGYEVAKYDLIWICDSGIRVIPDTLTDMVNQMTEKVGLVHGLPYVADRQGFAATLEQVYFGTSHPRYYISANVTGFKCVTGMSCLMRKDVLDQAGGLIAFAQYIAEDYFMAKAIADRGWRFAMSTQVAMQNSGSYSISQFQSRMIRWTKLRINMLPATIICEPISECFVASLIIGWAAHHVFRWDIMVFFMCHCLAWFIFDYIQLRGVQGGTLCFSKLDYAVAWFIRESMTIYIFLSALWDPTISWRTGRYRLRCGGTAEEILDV
Briefly: glucosylceramide synthase activity in cultured melanoma cells. The format is cell-based. The note with it: at IC50 concentration for glucosylceramidase.

Another assay addresses T5, glycogen synthase (Rattus norvegicus, UniProt P17625).
T5 construct: endogenous in cells; host or cells: rat hepatocytes
T5 sequence (P17625 1-704): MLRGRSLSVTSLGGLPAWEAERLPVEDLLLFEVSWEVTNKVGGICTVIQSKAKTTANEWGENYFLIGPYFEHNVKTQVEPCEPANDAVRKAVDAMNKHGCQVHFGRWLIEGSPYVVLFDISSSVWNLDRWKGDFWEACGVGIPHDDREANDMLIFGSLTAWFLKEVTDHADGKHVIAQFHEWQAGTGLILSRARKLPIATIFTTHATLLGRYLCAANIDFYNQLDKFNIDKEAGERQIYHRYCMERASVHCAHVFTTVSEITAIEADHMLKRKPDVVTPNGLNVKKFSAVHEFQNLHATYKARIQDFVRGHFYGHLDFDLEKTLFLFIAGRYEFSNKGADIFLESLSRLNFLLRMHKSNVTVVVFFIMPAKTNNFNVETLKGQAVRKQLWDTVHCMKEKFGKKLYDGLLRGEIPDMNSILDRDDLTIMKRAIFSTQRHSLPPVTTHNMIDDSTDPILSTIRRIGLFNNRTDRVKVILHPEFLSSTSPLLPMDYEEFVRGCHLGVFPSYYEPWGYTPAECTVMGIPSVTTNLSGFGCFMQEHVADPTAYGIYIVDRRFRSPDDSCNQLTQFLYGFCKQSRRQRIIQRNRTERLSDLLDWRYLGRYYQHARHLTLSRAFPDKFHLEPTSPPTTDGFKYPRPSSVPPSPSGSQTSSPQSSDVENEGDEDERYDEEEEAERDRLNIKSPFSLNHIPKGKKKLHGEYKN
The assay can be described thus: glycogen synthase in rat hepatocytes. The assay is classed as cell-based. The note with it: at IC50 concentration for glucosylceramidase.

Assay [5] concerns the target T6, glucosylceramidase (Homo sapiens, UniProt Q9HCG7).
T6 sequence (Q9HCG7 1-927): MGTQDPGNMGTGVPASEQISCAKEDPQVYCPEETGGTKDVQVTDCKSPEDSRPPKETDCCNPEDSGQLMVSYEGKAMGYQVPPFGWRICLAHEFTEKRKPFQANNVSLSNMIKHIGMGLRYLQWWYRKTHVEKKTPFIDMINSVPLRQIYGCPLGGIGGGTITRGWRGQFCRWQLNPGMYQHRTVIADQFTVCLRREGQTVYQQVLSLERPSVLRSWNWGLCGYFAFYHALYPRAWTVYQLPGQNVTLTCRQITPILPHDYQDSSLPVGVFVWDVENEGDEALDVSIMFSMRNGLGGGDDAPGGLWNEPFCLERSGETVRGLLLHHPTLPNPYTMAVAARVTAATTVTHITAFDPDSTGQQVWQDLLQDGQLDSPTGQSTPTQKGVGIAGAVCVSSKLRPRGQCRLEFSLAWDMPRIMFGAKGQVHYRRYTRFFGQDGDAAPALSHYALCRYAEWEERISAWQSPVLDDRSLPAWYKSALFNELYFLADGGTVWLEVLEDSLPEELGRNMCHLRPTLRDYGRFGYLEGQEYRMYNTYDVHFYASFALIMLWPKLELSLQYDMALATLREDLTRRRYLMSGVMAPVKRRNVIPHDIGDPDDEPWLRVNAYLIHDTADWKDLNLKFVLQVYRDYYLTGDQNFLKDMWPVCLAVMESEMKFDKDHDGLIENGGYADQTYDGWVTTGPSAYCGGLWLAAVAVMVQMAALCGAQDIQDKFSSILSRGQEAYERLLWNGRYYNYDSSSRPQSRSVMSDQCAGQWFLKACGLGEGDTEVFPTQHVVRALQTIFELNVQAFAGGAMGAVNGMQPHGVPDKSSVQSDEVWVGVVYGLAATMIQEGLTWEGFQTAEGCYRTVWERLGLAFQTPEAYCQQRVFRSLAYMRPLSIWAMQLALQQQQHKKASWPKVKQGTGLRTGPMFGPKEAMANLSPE
Briefly: glucosylceramidase activity in intact melanoma cells (4MU-b-glucoside, conduritol B-epoxide insensitive). Set-up: endogenous in cells. The format is cell-based. To be noted: IC50 GLUCOSYLCERAMIDASE

In assay [6] the target is T3, lysosomal a-glucosidase. The assay can be described thus: lysosomal a-glucosidase in cultured melanoma cells. The format is cell-based. Set-up: endogenous in cells. To be noted: at IC50 concentration for glucosylceramidase.
Assay [7] addresses T2, glucocerebrosidase. Briefly: glucocerebrosidase activity in intact melanoma cells (4MU-b-glucoside, conduritol B-epoxide sensitive). The format is cell-based. Set-up: the hydrolysis of 4MU-b-glucoside by cultured melanoma cells; endogenous in cells.
In assay [8] the target is T6, glucosylceramidase. Briefly: glucosylceramidase activity towards 4MU-b-glucoside in conduritol B-epoxide pre-treated membrane suspension from human spleen.
In another assay the test system is chitotriosidase. Briefly: chitotriosidase secretion by cultured macrophages. To be noted: cultured macrophages, glucosylceramide synthase inhibited. The assay is classed as cell-based, human.
Assay [9] addresses T4, glucosylceramide synthase. The assay can be described thus: glucosylceramide synthase activity in cultured macrophages with C6-NBD ceramide. The assay is classed as cell-based. Also noted: glucosylceramide synthase activity in cultured macrophages was also determined; endogenous in cells; host or cells: cultured human macrophages. The note with it: presence of PDMP or PPMP.

Each structure is given as a SMILES string. Where “and” joins values, the source holds several entries; their conditions need not be identical. Equal entries are not always repeated. Entries after “also recorded” stand apart in the source; their conditions may differ.

By IC50 is commonly meant the midpoint of a concentration-inhibition curve. In the case of `CC(C)CCC[C@@H](C)[C@H]1CC[C@H]2[C@@H]3CC=C4C[C@@H](OCCCCCN5C[C@H](O)[C@@H](O)[C@H](O)[C@H]5CO)CC[C@]4(C)[C@H]3CC[C@]12C` [P24, N-(5-cholesteroloxy-pentyl)-deoxynojirimycin], the IC50 in [1] is 800 nM; on glucocerebrosidase [2] it was 700 nM; against glucosylceramidase [5], 50 nM and ~50 nM; at glucocerebrosidase [7], 800 nM; on glucosylceramidase [8], 100 nM. Also, the Ki in assay [1] (soluble enzyme, 0.25% sodium taurocholate, 0.1% Triton X-100, pH 5.2, read-out: apparent Ki GLUCOCEREBROSIDASE CEREDASE) was found to be 960 nM; on glucocerebrosidase [2] (membrane suspension, 4MU-b-glucoside, pH 5.2, read-out: apparent Ki GLUCOCEREBROSIDASE MEMBRANES), 770 nM; on lysosomal a-glucosidase [3], 7200 nM; on glucosylceramidase [8], 97 nM. Further, the “inhibition of glucosylceramide synthase activity” value in assay [4] is recorded as “no inhibition”. Also, the “inhibition of glycogen synthase” value against glycogen synthase was “no inhibition”. Besides, the “inhibition of lysosomal a-glucosidase” value on lysosomal a-glucosidase [6] is listed as “no inhibition”. In addition, the “inhibition of glucocerebrosidase activity” value against glucocerebrosidase [7] (melanoma cells, at IC50 for glucosylceramidase or ten-fold higher concentrations) is on record as “no significant inhibition”.

With `CCCCCCCCCCCCCCCC(=O)NC(CN1CCOCC1)C(O)c1ccccc1` (stereo not drawn) [PPMP, 1-phenyl-2-hexadecanoylamino-3-morpholino-1-propanol], the “effect on chitotriosidase secretion” value in the assay with chitotriosidase is recorded as “does not result in reduced; also recorded: without effect”. Also, in assay [9], the “inhibition of glucosylceramide synthase activity” value is “potently”.
